Test results taken from patent US20020035061A1, “COMPOSITIONS AND METHODS FOR TREATING INFECTIONS USING CATIONIC PEPTIDES ALONE OR IN COMBINATION WITH ANTIBIOTICS” (priority 1996, published 2002).
Where two headings read alike, the source gives them in different places.

Columns and labels:
[1] = system: mammalian red blood cells; conditions: 37° C., 1 hour
Experimental: Candidate cationic peptides may be further tested for their toxicity to normal mammalian cells. An exemplary assay is a red blood cell (RBC) (erythrocyte) hemolysis assay. Briefly, in this assay, red blood cells are isolated from whole blood, typically by centrifugation, and washed free of plasma components. A 5% (v/v) suspension of erythrocytes in isotonic saline is incubated with different concentrations of peptide analogue. […] After incubation for approximately 1 hour at 37° C., the cells are centrifuged, and the absorbance of the supernatant at 540 nm is determined. A relative measure of lysis is determined by comparison to absorbance after complete lysis of erythrocytes using NH4Cl or equivalent (establishing a 100% value). A peptide with <10% lysis at 100 μg/ml is suitable. Preferably, there is <5% lysis at 100 μg/ml. Such peptides that are not lytic, or are only moderately lytic, are desirable and suitable for further screening.
Cationic peptides are tested for toxicity towards eukaryotic cells by measuring the extent of lysis of mammalian red blood cells (RBC). Briefly, in this assay, red blood cells are separated from whole blood by centrifugation and washed free of plasma components. A 5% (v/v) washed red blood cell suspension is prepared in isotonic saline. An aliquot of peptide in formulation is then added and mixed in. After incubation at 37° C. for 1 hour with constant agitation, the solution is centrifuged and the supernatant measured for absorbance at 540 nm to detect released hemoglobin.
A combination of cationic peptide and antibiotic agent is tested for toxicity towards eukaryotic cells by measuring the extent of lysis of mammalian red blood cells. Briefly, red blood cells are separated from whole blood by centrifugation, washed free of plasma components, and resuspended to a 5% (v/v) suspension in isotonic saline. […] Following incubation with constant agitation at 37° C. for 1 hour, the solution is centrifuged, and the absorbance of the supernatant is measured at 540 nm, which detects released hemoglobin. […]

S. aureus = format: cell-based; conditions: for Peptide MIC values: agarose dilution
E. coli = format: cell-based; conditions: for Peptide MIC values: agarose dilution
S. marcescens = format: cell-based
K. pneumoniae = format: cell-based
S. epidermidis = format: cell-based
[2] = system: MSSA (Smith, ATCC # 19640); test: In vivo efficacy, MSSA infection; design: species or system S. aureus; conditions: mice, ip, formulation D, below 14.5 mg/kg
S. maltophilia = format: cell-based
S. pneumoniae = test: Agarose dilution assay (MIC); format: cell-based; conditions: for Peptide MIC values: agarose dilution
A. calcoaceticus = format: cell-based
E. faecium = format: cell-based
P. aeruginosa = format: cell-based; conditions: for Peptide MIC values: agarose dilution
[3] = system: E. coli strain ML-35 inner membrane; format: cell-based; conditions: cells pre-incubated with valinomycin
E. cloacae = format: cell-based
bacterial isolates = test: microbe, parasite or virus in culture; format: cell-based
P. mirabilis = test: Agarose dilution assay (MIC); format: cell-based; conditions: P. mirabilis strain PM002
H. influenzae = test: Agarose dilution assay (MIC); format: cell-based; conditions: H. influenzae strain HIN002
[4] = system: microorganisms with acquired resistance; test: microbe, parasite or virus in culture; format: cell-based
E. faecalis = format: cell-based; conditions: E. faecalis strain EFS002
S. pyogenes = test: Agarose dilution assay (MIC); format: cell-based; conditions: S. pyogenes strain SPY005
[5] = A. baumannii ABI001, Tobramycin section
[6] = A. calcoaceticus 3, Piperacillin section
[7] = P. aeruginosa 15, Piperacillin section
[8] = P. aeruginosa PA008, Tobramycin section
[9] = P. aeruginosa PA025, Tobramycin section
[10] = S. marcescens SB1, Piperacillin section
[11] = peptide + Piperacillin, A. calcoaceticus 3
[12] = peptide + Piperacillin, P. aeruginosa 15
[13] = peptide + Piperacillin, S. marcescens SB1
[14] = peptide + Tobramycin, A. baumannii ABI001
[15] = peptide + Tobramycin, P. aeruginosa PA008
[16] = peptide + Tobramycin, P. aeruginosa PA025

## CC[C@H](C)[C@H](NC(=O)CNC(=O)[C@@H](NC(=O)[C@H](CCCCN)NC(=O)[C@H](CCCCN)NC(=O)[C@H](Cc1ccccc1)NC(=O)[C@H](CC(C)C)NC(=O)[C@H](CCCCN)NC(=O)[C@H](Cc1c[nH]c2ccccc12)NC(=O)[C@@H](N)CCCCN)[C@@H](C)CC)C(=O)NCC(=O)N[C@@H](C)C(=O)N[C@H](C(=O)N[C@@H](CC(C)C)C(=O)N[C@@H](CCCCN)C(=O)N[C@H](C(=O)N[C@@H](CC(C)C)C(=O)N[C@H](C(=O)N[C@H](C(=O)NCC(=O)N[C@@H](CC(C)C)C(=O)N1CCC[C@H]1C(=O)N[C@@H](C)C(=O)N[C@@H](CC(C)C)C(=O)N[C@H](C(=O)N[C@@H](CO)C(=O)O)[C@@H](C)CC)[C@@H](C)O)[C@@H](C)O)C(C)C)C(C)C [MBI 27]
[1]
  % Lysis: 2.7%

## ILPWKWPWWPWRR [MBI 10CN]
S. aureus; S. aureus SA003
  MIC: 2 µg/mL
S. aureus; S. aureus MRSA9
  Peptide MIC values: 1 µg/mL
S. aureus; S. aureus MRSA13
  Peptide MIC values: 4 µg/mL
S. aureus; S. aureus MRSA17
  Peptide MIC values: 2 µg/mL
E. coli; E. coli ECO001
  MIC: 32 µg/mL
E. coli; E. coli SBECO2
  MIC: 16 µg/mL
E. coli; E. coli ATCC 25922
  Peptide MIC values: 16 µg/mL
E. coli; E. coli NCTC 10418
  Peptide MIC values: 8 µg/mL
S. marcescens; S. marcescens SMS004
  MIC: >128 µg/mL
S. marcescens; agarose dilution, S. marcescens SM82
  Peptide MIC values: >128 µg/mL
K. pneumoniae; K. pneumoniae KP002
  MIC: 64 µg/mL
S. epidermidis; S. epidermidis SE010
  MIC: 4 µg/mL
[2]
  survival: clear dose-dependent survival
S. maltophilia; S. maltophilia SMA002
  MIC: 64 µg/mL
S. pneumoniae; S. pneumoniae 406LE8
  Peptide MIC values: >128 µg/mL
S. pneumoniae; S. pneumoniae 60120
  Peptide MIC values: 64 µg/mL
S. pneumoniae; S. pneumoniae ATCC 49619
  Peptide MIC values: 32 µg/mL
A. calcoaceticus; A. calcoaceticus AC001
  MIC: 64 µg/mL
E. faecium; E. faecium EFM003
  MIC: 2 µg/mL
E. faecium; agarose dilution
  Peptide MIC values: 4 µg/mL
P. aeruginosa; P. aeruginosa PA002
  MIC: >128 µg/mL
P. aeruginosa; P. aeruginosa ATCC 27853
  Peptide MIC values: >128 µg/mL
P. aeruginosa; P. aeruginosa NCTC 10662
  Peptide MIC values: >128 µg/mL
[3]
  ONPG hydrolysis diminished compared to no pre-incubation: approximately 50%
E. cloacae; E. cloacae ECL007
  MIC: >128 µg/mL

## ILRRVJPWWPWRRR [MBI 11B9CN]
Bacterial isolates; A. baumannii ABI001
  Peptide MIC + Tobramycin: 8 µg/mL
  Tobramycin MIC + Peptide: 4 µg/mL
Bacterial isolates; [5]
  Peptide MIC Alone: 32 µg/mL
Bacterial isolates; A. calcoaceticus 3
  Peptide MIC + Piperacillin: 2 µg/mL
  Piperacillin MIC + Peptide: 32 µg/mL
Bacterial isolates; [6]
  Peptide MIC Alone: 32 µg/mL
Bacterial isolates; B. cepacia BC002
  Peptide MIC + Tobramycin: 32 µg/mL
  Tobramycin MIC + Peptide: 64 µg/mL
Bacterial isolates; B. cepacia BC002, Tobramycin section
  Peptide MIC Alone: >128 µg/mL
Bacterial isolates; H. influenzae 3
  Peptide MIC + Piperacillin: 0.125 µg/mL
  Piperacillin MIC + Peptide: 0.25 µg/mL
Bacterial isolates; H. influenzae 3, Piperacillin section
  Peptide MIC Alone: >128 µg/mL
Bacterial isolates; H. influenzae SB1
  Peptide MIC + Piperacillin: 0.125 µg/mL
  Piperacillin MIC + Peptide: 0.25 µg/mL
Bacterial isolates; H. influenzae SB1, Piperacillin section
  Peptide MIC Alone: >128 µg/mL
Bacterial isolates; P. aeruginosa 15
  Peptide MIC + Piperacillin: 64 µg/mL
  Piperacillin MIC + Peptide: 64 µg/mL
Bacterial isolates; [7]
  Peptide MIC Alone: >128 µg/mL
Bacterial isolates; P. aeruginosa 23
  Peptide MIC + Piperacillin: 0.5 µg/mL
  Piperacillin MIC + Peptide: 16 µg/mL
Bacterial isolates; P. aeruginosa 23, Piperacillin section
  Peptide MIC Alone: 64 µg/mL
Bacterial isolates; P. aeruginosa PA008
  Peptide MIC + Tobramycin: 64 µg/mL
  Tobramycin MIC + Peptide: 0.125 µg/mL
Bacterial isolates; [8]
  Peptide MIC Alone: 128 µg/mL
Bacterial isolates; P. aeruginosa PA025
  Peptide MIC + Tobramycin: 64 µg/mL
  Tobramycin MIC + Peptide: 2 µg/mL
Bacterial isolates; [9]
  Peptide MIC Alone: 128 µg/mL
Bacterial isolates; S. aureus 19 MRSA
  Peptide MIC + Piperacillin: 1 µg/mL
  Piperacillin MIC + Peptide: 16 µg/mL
Bacterial isolates; S. aureus 19 MRSA, Piperacillin section
  Peptide MIC Alone: 4 µg/mL
Bacterial isolates; S. aureus SB2MRSA
  Peptide MIC + Piperacillin: 1 µg/mL
  Piperacillin MIC + Peptide: 8 µg/mL
Bacterial isolates; S. aureus SB2MRSA, Piperacillin section
  Peptide MIC Alone: 2 µg/mL
Bacterial isolates; S. maltophilia 5
  Peptide MIC + Piperacillin: 64 µg/mL
  Piperacillin MIC + Peptide: 64 µg/mL
Bacterial isolates; S. maltophilia 5, Piperacillin section
  Peptide MIC Alone: >128 µg/mL
Bacterial isolates; S. maltophilia 13
  Peptide MIC + Piperacillin: 32 µg/mL
  Piperacillin MIC + Peptide: 64 µg/mL
Bacterial isolates; S. maltophilia 13, Piperacillin section
  Peptide MIC Alone: >128 µg/mL
Bacterial isolates; S. maltophilia SMA029
  Peptide MIC + Tobramycin: 16 µg/mL
  Tobramycin MIC + Peptide: 4 µg/mL
Bacterial isolates; S. maltophilia SMA029, Tobramycin section
  Peptide MIC Alone: >128 µg/mL
Bacterial isolates; S. marcescens SB1
  Peptide MIC + Piperacillin: 2 µg/mL
  Piperacillin MIC + Peptide: 16 µg/mL
Bacterial isolates; [10]
  Peptide MIC Alone: >128 µg/mL
Bacterial isolates; [11]
  FIC: 0.56
Bacterial isolates; peptide + Piperacillin, H. influenzae 3
  FIC: 0.50
Bacterial isolates; peptide + Piperacillin, H. influenzae SB1
  FIC: 0.50
Bacterial isolates; [12]
  FIC: 0.50
Bacterial isolates; peptide + Piperacillin, P. aeruginosa 23
  FIC: 0.13
Bacterial isolates; peptide + Piperacillin, S. aureus 19 MRSA
  FIC: 0.38
Bacterial isolates; peptide + Piperacillin, S. aureus SB2MRSA
  FIC: 0.56
Bacterial isolates; peptide + Piperacillin, S. maltophilia 5
  FIC: 0.50
Bacterial isolates; peptide + Piperacillin, S. maltophilia 13
  FIC: 0.38
Bacterial isolates; [13]
  FIC: 0.26
Bacterial isolates; [14]
  FIC: 0.50
Bacterial isolates; peptide + Tobramycin, B. cepacia BC002
  FIC: 0.38
Bacterial isolates; [15]
  FIC: 0.50
Bacterial isolates; [16]
  FIC: 0.56
Bacterial isolates; peptide + Tobramycin, S. maltophilia SMA029
  FIC: 0.13
P. mirabilis
  MIC: >128 µg/mL
H. influenzae
  MIC: >128 µg/mL
S. aureus; S. aureus strain SA010
  MIC: 4 µg/mL
E. coli; E. coli strain ECO005
  MIC: 8 µg/mL
[4]; A. baumannii ABI001
  Peptide MIC + Tobramycin: 8 µg/mL
  Tobramycin MIC + Peptide: 4 µg/mL
[4]; [5]
  Peptide MIC Alone: 32 µg/mL
[4]; A. calcoaceticus 3
  Peptide MIC + Piperacillin: 16 µg/mL
  Piperacillin MIC + Peptide: 16 µg/mL
[4]; [6]
  Peptide MIC Alone: 32 µg/mL
[4]; E. coli EC0006
  Peptide MIC + Tobramycin: 8 µg/mL
  Tobramycin MIC + Peptide: 4 µg/mL
[4]; E. coli EC0006, Tobramycin section
  Peptide MIC Alone: 32 µg/mL
[4]; P. aeruginosa 12
  Peptide MIC + Piperacillin: 64 µg/mL
  Piperacillin MIC + Peptide: 64 µg/mL
[4]; P. aeruginosa 12, Piperacillin section
  Peptide MIC Alone: 128 µg/mL
[4]; P. aeruginosa 15
  Peptide MIC + Piperacillin: 64 µg/mL
  Piperacillin MIC + Peptide: 64 µg/mL
[4]; [7]
  Peptide MIC Alone: >128 µg/mL
[4]; P. aeruginosa PA008
  Peptide MIC + Tobramycin: 64 µg/mL
  Tobramycin MIC + Peptide: 0.125 µg/mL
[4]; [8]
  Peptide MIC Alone: 128 µg/mL
[4]; P. aeruginosa PA025
  Peptide MIC + Tobramycin: 64 µg/mL
  Tobramycin MIC + Peptide: 2 µg/mL
[4]; [9]
  Peptide MIC Alone: 128 µg/mL
[4]; S. maltophilia 2
  Peptide MIC + Piperacillin: 16 µg/mL
  Piperacillin MIC + Peptide: 16 µg/mL
[4]; S. maltophilia 2, Piperacillin section
  Peptide MIC Alone: 32 µg/mL
[4]; S. maltophilia SMA027
  Peptide MIC + Tobramycin: 32 µg/mL
  Tobramycin MIC + Peptide: 4 µg/mL
[4]; S. maltophilia SMA027, Tobramycin section
  Peptide MIC Alone: >128 µg/mL
[4]; S. maltophilia SMA031
  Peptide MIC + Tobramycin: 32 µg/mL
  Tobramycin MIC + Peptide: 4 µg/mL
[4]; S. maltophilia SMA031, Tobramycin section
  Peptide MIC Alone: >128 µg/mL
[4]; S. marcescens SB1
  Peptide MIC + Piperacillin: 2 µg/mL
  Piperacillin MIC + Peptide: 16 µg/mL
[4]; [10]
  Peptide MIC Alone: >128 µg/mL
[4]; [11]
  FIC: 0.75
[4]; peptide + Piperacillin, P. aeruginosa 12
  FIC: 0.75
[4]; [12]
  FIC: 0.50
[4]; peptide + Piperacillin, S. maltophilia 2
  FIC: 0.75
[4]; [13]
  FIC: 0.26
[4]; [14]
  FIC: 0.50
[4]; peptide + Tobramycin, E. coli EC0006
  FIC: 0.75
[4]; [15]
  FIC: 0.50
[4]; [16]
  FIC: 0.56
[4]; peptide + Tobramycin, S. maltophilia SMA027
  FIC: 0.63
[4]; peptide + Tobramycin, S. maltophilia SMA031
  FIC: 0.19
S. marcescens; S. marcescens strain SMS003
  MIC: >128 µg/mL
K. pneumoniae; K. pneumoniae strain KP001
  MIC: 32 µg/mL
S. epidermidis; S. epidermidis strain SE010
  MIC: 2 µg/mL
S. maltophilia; S. maltophilia strain SMA002
  MIC: 32 µg/mL
S. pneumoniae; S. pneumoniae strain SBSPN2
  MIC: >128 µg/mL
S. pneumoniae; S. pneumoniae strain SPN044
  MIC: >128 µg/mL
A. calcoaceticus; A. calcoaceticus strain AC002
  MIC: 4 µg/mL
E. faecium; E. faecium strain EFM002
  MIC: 4 µg/mL
P. aeruginosa; P. aeruginosa strain PA004
  MIC: 128 µg/mL
E. faecalis
  MIC: 8 µg/mL
S. pyogenes
  MIC: 16 µg/mL
E. cloacae; E. cloacae strain ECL007
  MIC: >128 µg/mL
